The source made the active and inactive calls. No cut-off for these calls is given here.
Assays:
U-251 [1] = assay: cells; type: functional, cell-based; details: Homo sapiens, U-251, 48 h
Description: Cytotoxicity against human TMZ-sensitive U251 cells assessed as inhibition of cell growth incubated for 48 hrs by MTT assay

Mus musculus [2] = assay: In vivo inhibition of MAO-A in mouse xenografted with mouse GL26 assessed as decrease in MAO activity in tumor at 10 mg/kg by radiometric analysis; type: functional, organism-based
[3] = Toxicity in mouse bearing intracranial tumor assessed as last day of survival at 10 mg/kg, ip treatment started at 7 dpi (Rvb=19 days); type: organism-based; details: in vivo, 456 h
[4] = Toxicity in mouse bearing intracranial tumor assessed as last day of survival at 10 mg/kg, ip in presence of SAHA for 10 days (Rvb=16 days); type: organism-based; details: in vivo, 240 h, time 10 day
[5] = Toxicity in mouse bearing intracranial tumor assessed as assessed as […] at 10 mg/kg, ip for 14 days treatment started at 5 days post-infection (Rvb=14 days); type: organism-based; details: in vivo, 336 h, time 14 day
[6] = Toxicity in mouse bearing intracranial tumor assessed as median survival time at 10 mg/kg, ip in presence of SAHA for 10 days (Rvb=13.8 days); type: organism-based; details: in vivo, 240 h, time 10 day
Mus musculus [7] = assay: In vivo inhibition of MAO-A in mouse xenografted with mouse GL26 cells as decrease in MAO activity in brain at 10 mg/kg by radiometric analysis; type: functional, organism-based
[8] = Toxicity in mouse bearing intracranial tumor assessed as last day of survival at 10 mg/kg,ip for 10 days (Rvb=16 days); type: organism-based; details: in vivo, 240 h, time 10 day
[9] = Toxicity in mouse bearing intracranial tumor assessed as assessed as median survival time at 10 mg/kg, ip treatment started at 7 dpi (Rvb=18.25 days); type: organism-based; details: in vivo, 438 h
[10] = Toxicity in mouse bearing intracranial tumor assessed as last day of survival at 5 mg/kg, ip in presence of SAHA for 10 days (Rvb=16 days); type: organism-based; details: in vivo, 240 h, time 10 day
[11] = Toxicity in mouse bearing intracranial tumor assessed as median survival time at 10 mg/kg, ip for 10 days (Rvb= 13.8 days); type: organism-based; details: in vivo, 240 h, time 10 day
U-251 [12] = assay: cells; type: functional, cell-based; details: Homo sapiens, U-251, 48 h; remark: listed apart in the source
Description: Cytotoxicity against human TMZ-resistant U251 cells assessed as inhibition of cell growth incubated for 48 hrs by MTT assay

[13] = target: T1, Amine oxidase [flavin-containing] B (Mus musculus, UniProt Q8BW75); assay: Inhibition of wild type MAO-B in mouse brain using methyl ester luciferin as substrate at 1 uM pre-incubated for 15 mins followed by substrate addition measured after 1 hr by MAO-Glo assay relative to control; type: tissue-based
T1 sequence (Q8BW75 whole entry): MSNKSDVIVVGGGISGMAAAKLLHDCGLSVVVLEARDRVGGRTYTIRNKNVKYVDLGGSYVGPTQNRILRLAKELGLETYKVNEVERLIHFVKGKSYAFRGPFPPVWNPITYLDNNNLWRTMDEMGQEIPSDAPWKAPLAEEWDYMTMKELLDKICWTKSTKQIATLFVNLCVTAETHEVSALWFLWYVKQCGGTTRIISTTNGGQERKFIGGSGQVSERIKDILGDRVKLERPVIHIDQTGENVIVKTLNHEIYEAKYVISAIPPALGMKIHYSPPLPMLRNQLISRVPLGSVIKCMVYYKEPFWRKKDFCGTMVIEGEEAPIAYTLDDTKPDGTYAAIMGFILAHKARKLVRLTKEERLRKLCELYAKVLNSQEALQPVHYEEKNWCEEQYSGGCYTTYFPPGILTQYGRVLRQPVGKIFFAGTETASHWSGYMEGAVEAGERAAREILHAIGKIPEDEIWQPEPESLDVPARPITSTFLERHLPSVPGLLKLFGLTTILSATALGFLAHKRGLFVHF

[14] = Cytotoxicity against mouse GL26 cells assessed as inhibition of cell growth incubated for 48 hrs by MTT assay; type: functional, cell-based; details: GL26, 48 h
[15] = Toxicity in mouse bearing intracranial tumor assessed as assessed as median survival time at 10 mg/kg, ip for 14 days treatment started at 5 days post-infection (Rvb=12.8 days); type: organism-based; details: in vivo, 336 h, time 14 day
[16] = Toxicity in mouse bearing intracranial tumor assessed as median survival time at 5 mg/kg, ip in presence of SAHA for 10 days (Rvb=13.8 days); type: organism-based; details: in vivo, 240 h, time 10 day

C#CCN(C)CCCOc1ccc(Cl)cc1Cl [CLORGILINE]
IC50 (U-251 [1]): 175 µM
Activity (Mus musculus [2]): Active
Survival [3]: 19 days
Survival [4]: 18 days
MST [5]: 11.75 days
MST [6]: 14.4 days
Activity (Mus musculus [7]): Active
Survival [8]: 17 days
MST [9]: 17.25 days
Survival [10]: 14 days
Survival [11]: 13.8 days
IC50 (U-251 [12]): 136 µM
inhibition at 1 µM [13]: < 25%
IC50 [14]: 169 µM
Survival [15]: 15 days
MST [16]: 13.8 days
